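A five-concentration, 48-hour dose response in 96-well plates underlies each endpoint, interpolated linearly between surrounding concentrations. Abbreviation: GI50, concentration required for 50% inhibition of growth. TGI denotes the concentration required for complete inhibition of growth.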 Where a SMILES comes first, the peptide text is derived from it.

The text below walks through data of PubChem BioAssay (NCI).

Common to all, as to experiment: NCI-60 cell line screen, 48 h
Assay [1] has as its system ACHN renal.
Assay [2] relates to K-562 leukemia.
The test system of assay [3] is MCF7 breast.
For assay [4], the system named is MDA-MB-435.
For assay [5], the system named is PC-3 prostate.
Assay [6] deals with SF-295 CNS.
Assay [7] deals with SK-MEL-28 melanoma.
For assay [8], the system named is SN12C renal.
For assay [9], the system named is SR leukemia.
Assay [10] relates to UO-31 renal.

In the case of `COc1cc(/C=C2\C(=O)Nc3ccc(Cl)cc32)cc(OC)c1OC`, the GI50 in assay [1] is 23.5 µM; in [2], 4.44 µM; in [3], 26 µM; in [4], 3.26 µM; in assay [5] it was 2.93 µM; in assay [6], 78.2 µM. Besides, the GI50 in assay [7] was greater than 100 µM; in assay [8] it was 26.5 µM; in assay [9] it was 3.29 µM; in assay [10] it was 16 µM. Further, the TGI in assay [1] was greater than 100 µM; in assay [2] it was greater than 100 µM; in [3], greater than 100 µM; in assay [4], 9.37 µM; in [5], greater than 100 µM; in assay [6], greater than 100 µM. In addition, the TGI in assay [7], in assay [8], in assay [9] and in assay [10] was greater than 100 µM in each case.
In the case of `O=C([O-])c1ccccc1Nc1ccccc1C(=O)[O-].[OH3+].[Zn+2]`, the TGI in assay [1] was greater than 100 µM; in [2], 88.7 µM; in assay [6] it was 32.2 µM; in assay [7] it was 40.7 µM; in assay [8] it was greater than 100 µM; in assay [9] it was greater than 63.7 µM. In addition, in assay [10], the TGI was greater than 63.1 µM.
For `COc1cc2c(c(OC)c1OC)-c1ccc(OC)c(=O)cc1C(NC(=O)CCCCCNc1ccc(N=[N+]=[N-])cc1[N+](=O)[O-])CC2` (configuration not stated), the TGI in assay [1] is 24.4 µM; in assay [3], greater than 21.6 µM; in assay [4], less than 0.01 µM; in assay [5] it was less than 0.01 µM; in assay [6] it was 12.5 µM; in assay [7], 25 µM. In addition, the TGI in [8] is 11.5 µM; in assay [9], less than 0.01 µM.
In the case of `N#CC1(C#N)C(=O)c2ccncc2C1=O`, the TGI in assay [1], in assay [2], in [3], in [4], in assay [5] and in assay [6] was greater than 100 µM throughout. The TGI in assay [7], in assay [8], in assay [9] and in [10] was greater than 100 µM each time.
As for `CCCCC1Nc2ccccc2-c2ccnc(Cl)c21` (configuration not stated), the TGI is 68.4 µM in assay [1]; 62.8 µM in assay [2]; greater than 100 µM in [3]; 41.7 µM in assay [4]; greater than 100 µM in assay [5]; 47.7 µM in [6]. Besides, the TGI was 46.5 µM in assay [7], 51 µM in assay [8], 51 µM in assay [9] and 55.8 µM in assay [10].
For `Brc1ccc2nc(-c3cccs3)nc(N3CCN(c4ccccc4)CC3)c2c1`, the TGI in assay [1], in assay [2], in assay [3], in assay [4], in [5] and in [6] was greater than 100 µM in each case. The TGI in [7], in assay [8], in assay [9] and in assay [10] was greater than 100 µM in each case.
Regarding `N=C1c2ccccc2C(=O)c2c(NCCNCCO)ccc(O)c21`, the TGI is 57 µM in [1]; greater than 28.8 µM in [2]; greater than 40.5 µM in assay [6]; 23.2 µM in [7]; 31.7 µM in assay [8]; 5.32 µM in [9]. In addition, the TGI in [10] was found to be 32.7 µM.
As for `COC1=CC(c2ccc[nH]2)=N/C1=C\c1[nH]c(C)c(CC(=O)NCc2ccccc2)c1C`, the GI50 in assay [1] is 1.75 µM; in assay [4], 1.68 µM; in assay [5], 1.1 µM; in assay [6], 1.47 µM; in assay [10], 1.64 µM. The TGI came out at 3.28 µM in [1]; 3.23 µM in assay [4]; 2.6 µM in assay [5]; 2.89 µM in [6]; 3.16 µM in [10].
Turning to `CC(=O)NC(CS)C(=O)NC(CO)C(=O)NC(CO)C(=O)NC(Cc1c[nH]c2ccccc12)C(=O)N1CCCC1C(=O)NC(CO)C(=O)NC(Cc1c[nH]c2ccccc12)C(=O)NC(Cc1c[nH]cn1)C(=O)NC(CO)C(=O)NC(Cc1c[nH]c2ccccc12)C(=O)NCC(=O)NCC(=O)NC(C)C(=O)NC(CCC(N)=O)C(=O)NC(CCCCN)C(=O)NC(C)C(=O)NC(CCCNC(=N)N)C(=O)NC(CCCCN)C(N)=O` (configuration not stated) (Ac-CSSWPSWHSWGGAQKARK-NH2; configuration not given here), the TGI was greater than 50 µM in assay [1]; 28.5 µM in [2]; greater than 50 µM in assay [3]; greater than 50 µM in [4]; greater than 50 µM in assay [5]; greater than 50 µM in assay [6]. Besides, the TGI in [7] was 20.9 µM; in assay [8], greater than 50 µM; in assay [9], 43.4 µM; in assay [10], greater than 50 µM.
For `COc1cc(-c2n/c(=C\c3c(O)[nH]c4ccccc34)cc3c2=Nc2ccccc2-3)ccc1F`, the GI50 in assay [1] is 8.09 µM; in assay [2] it was 5.88 µM; in [3], 2.51 µM; in [4] it was 5.8 µM; in [5], 10.2 µM; in [6], 24.4 µM. Further, the GI50 in assay [7] was 6.2 µM; in assay [8], 10.7 µM; in assay [9], 2.05 µM; in assay [10] it was 25.6 µM. For the same molecule, the TGI in [1] is 35.2 µM; in assay [2], 62.1 µM; in assay [3] it was greater than 100 µM; in [4], 64.4 µM; in assay [5], 48.8 µM; in assay [6] it was greater than 100 µM. Also, the TGI in assay [7] was 22.6 µM; in assay [8] it was 34 µM; in [9], 20.2 µM; in [10] it was greater than 100 µM.
